This passage reports IC50 results from patent publication US9226929B2, “Pharmaceutically active disubstituted triazine derivatives” (Bayer Intellectual Property GMBH, priority 2011, dated 2016).

For this test, the system named is cellular CDK9 activity (RNA Polymerase II Ser2 phosphorylation). The experiment in a line: RNA-Polymerase II Ser2 Cellular Phosphorylation Assay. The class given is cell-based. The conditions noted are these: Homo sapiens; HCT-116 cells, normalized with tubulin; read-out: RNA Polymerase II Ser2 Phosphorylation (activity range), IC50. On the procedure:
3.1 RNA-Polymerase II Ser2 Cellular Phosphorylation Assay:
HCT-116 cells (DSMZ, Braunschweig, Germany) were maintained in Mc Coy's cell culture medium+glutamine (PAN Biotech GmbH, Aidenbach, Germany) supplemented with 10% fetal calf serum (PAA Laboratories GmbH, Pasching, Austria) and grown at 37° C., 5% CO2. For the cellular phosphorylation assay, cells were seeded with 2×10^5 cells/well/1 ml in 24-well plates (Greiner Bio One, Frickenhausen, Germany; catalog #662160). The compounds of general formula (I) summarized in Table 6 were diluted from a 10 mM DMSO stock solution 1:10 in a total volume of 15 μL DMSO. After overnight incubation at 37° C./5% CO2, 1.5 μL of a compound diluted in DMSO was added to each sample well. Wells with cells and 0.15% DMSO in culture medium were used as positive controls, wells without cells and 0.15% DMSO in culture medium were used as negative controls. […] Phosphorylation of RNA Polymerase II Ser2 and tubulin levels for normalization were analyzed afterwards with the Multi-Array technology (Meso Scale Discovery, Gaithersburg, Md., USA), a combination of antibody coupled electrochemiluminescence detection and patterned arrays. […] Finally, plates were washed three times with Tris Wash Buffer, 150 μl 2× Read Buffer (Meso Scale Discovery) were added per well and plates were analyzed immediately in a Sector Imager from Meso Scale Discovery. […]

Usually IC50 stands for the midpoint of a concentration-inhibition curve. For `NS(=O)(=O)Cc1cccc(Nc2ncnc(N3CCc4ncccc4C3)n2)c1` [Compound B38, 3-[(4-(7,8-Dihydro-1,6-naphthyridin-6(5H)-yl)-1,3,5-triazin-2-yl)amino]-benzenemethanesulfonamide], the IC50 is more than 10 µM.
